How the values were obtained:
IKZF2 (Helios) [1] = molecular target: T1, IKZF2 (Helios) (Homo sapiens, UniProt Q96SW2+Q9UKS7); test: IKZF2 reporter degradation assay (HEK 293T IKZF2-mNeonGreen reporter cell line); type: cell-based; conditions: @ 1 μM, HEK 293T IKZF2-mNeonGreen reporter, 24 hours incubation; for inhibition at 1 µM: HEK-293T, 24 h
T1 construct: Leu-Asp junction (codons ctcgac before the linker); mScarlet (behind P2A) (C, cleaved yes); expressed in transfected cells
Procedure, shortened: (§1)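 In reporter HEK 293T clones, the FITC exposure was 1000 ms for the IKZF2 line and 500 ms for the IKZF1 and IKZF3 lines. Imaging followed 24 h of compound treatment, and percent-positive scoring was fitted to a four-parameter logistic curve for DC50.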

IKZF2 (Helios) [2] = molecular target: T2, IKZF2 (Helios) (Homo sapiens, UniProt Q9UKS7); test: as above; type: cell-based; conditions: HEK 293T IKZF2-mNeonGreen reporter, 24 hours incubation
T2 construct: Leu-Asp junction (codons ctcgac before the linker); mScarlet (behind P2A) (C, cleaved yes); expressed in transfected cells
T2 sequence (Q9UKS7 whole entry): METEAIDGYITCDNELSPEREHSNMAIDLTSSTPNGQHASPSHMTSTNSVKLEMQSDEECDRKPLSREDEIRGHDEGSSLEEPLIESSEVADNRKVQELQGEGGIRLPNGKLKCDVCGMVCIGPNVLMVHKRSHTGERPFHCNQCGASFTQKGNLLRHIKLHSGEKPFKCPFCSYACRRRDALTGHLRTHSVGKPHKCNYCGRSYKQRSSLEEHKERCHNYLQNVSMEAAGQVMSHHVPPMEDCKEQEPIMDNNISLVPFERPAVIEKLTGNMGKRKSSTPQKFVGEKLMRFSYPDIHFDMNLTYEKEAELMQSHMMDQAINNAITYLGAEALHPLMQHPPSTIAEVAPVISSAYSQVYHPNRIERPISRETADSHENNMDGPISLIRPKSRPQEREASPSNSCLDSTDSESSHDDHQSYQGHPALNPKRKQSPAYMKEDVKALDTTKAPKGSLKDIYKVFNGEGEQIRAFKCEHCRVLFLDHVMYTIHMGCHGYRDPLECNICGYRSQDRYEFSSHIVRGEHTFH
T2 sequence (Q96SW2 whole entry, further chain): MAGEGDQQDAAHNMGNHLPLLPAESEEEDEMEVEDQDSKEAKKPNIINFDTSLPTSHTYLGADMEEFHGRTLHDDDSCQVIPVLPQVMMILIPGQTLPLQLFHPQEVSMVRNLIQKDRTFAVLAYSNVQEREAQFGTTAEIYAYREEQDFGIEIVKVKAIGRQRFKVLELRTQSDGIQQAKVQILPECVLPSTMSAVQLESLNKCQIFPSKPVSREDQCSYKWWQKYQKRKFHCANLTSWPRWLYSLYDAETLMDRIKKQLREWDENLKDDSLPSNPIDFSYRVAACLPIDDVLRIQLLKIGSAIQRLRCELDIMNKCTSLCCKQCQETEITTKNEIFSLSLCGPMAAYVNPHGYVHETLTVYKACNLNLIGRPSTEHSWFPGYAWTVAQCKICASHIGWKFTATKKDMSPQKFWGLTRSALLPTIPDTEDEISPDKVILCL
T2 sequence (Q16531 whole entry partner): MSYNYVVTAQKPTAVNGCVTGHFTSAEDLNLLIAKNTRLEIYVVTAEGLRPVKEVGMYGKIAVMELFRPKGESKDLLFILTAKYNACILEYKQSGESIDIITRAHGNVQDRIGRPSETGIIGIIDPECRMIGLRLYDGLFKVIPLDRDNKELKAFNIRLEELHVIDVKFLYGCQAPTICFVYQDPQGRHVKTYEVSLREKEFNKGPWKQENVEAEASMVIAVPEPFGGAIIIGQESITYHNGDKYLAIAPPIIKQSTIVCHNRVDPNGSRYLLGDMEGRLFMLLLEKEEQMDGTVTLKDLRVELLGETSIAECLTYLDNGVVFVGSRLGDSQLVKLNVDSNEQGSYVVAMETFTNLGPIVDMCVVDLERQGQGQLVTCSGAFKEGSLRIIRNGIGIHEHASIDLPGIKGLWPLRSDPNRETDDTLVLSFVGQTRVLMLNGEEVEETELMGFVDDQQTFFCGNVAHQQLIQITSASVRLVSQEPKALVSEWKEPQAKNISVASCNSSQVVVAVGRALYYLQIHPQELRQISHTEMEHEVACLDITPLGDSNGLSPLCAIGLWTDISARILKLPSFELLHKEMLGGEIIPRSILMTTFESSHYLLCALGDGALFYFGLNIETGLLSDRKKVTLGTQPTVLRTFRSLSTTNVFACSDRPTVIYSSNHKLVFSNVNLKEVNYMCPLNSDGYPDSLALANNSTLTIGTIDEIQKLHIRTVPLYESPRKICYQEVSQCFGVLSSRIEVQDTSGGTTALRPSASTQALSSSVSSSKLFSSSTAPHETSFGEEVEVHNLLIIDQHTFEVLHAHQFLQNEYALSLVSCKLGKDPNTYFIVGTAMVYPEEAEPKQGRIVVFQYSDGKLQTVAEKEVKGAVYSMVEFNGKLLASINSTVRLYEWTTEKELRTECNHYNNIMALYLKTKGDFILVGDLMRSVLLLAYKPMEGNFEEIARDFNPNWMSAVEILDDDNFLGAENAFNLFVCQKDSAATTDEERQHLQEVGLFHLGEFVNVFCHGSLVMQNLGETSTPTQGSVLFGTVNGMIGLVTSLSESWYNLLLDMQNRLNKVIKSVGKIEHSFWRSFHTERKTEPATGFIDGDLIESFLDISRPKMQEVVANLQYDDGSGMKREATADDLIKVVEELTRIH
Procedure, shortened: as §1

[3] = molecular target: T3, human E3 ligase component cereblon (CRBN) (Homo sapiens, UniProt Q96SW2); test: Cereblon (CRBN) target engagement, NanoBRET TE Intracellular E3 Ligase Assay in transfected HEK-293T cells; conditions: read-out: CRBN Binding EC50
T3 construct: host or cells: HEK293T
T3 sequence (Q96SW2 whole entry): as the sequence (Q96SW2 whole entry, further chain) above
T3 sequence (Q16531 whole entry partner): as the sequence (Q16531 whole entry partner) above
Procedure, shortened: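 Tracer displacement was read as the 610/450 nm BRET signal after 2 h at 37° C with an 11-point dilution series, typically 10 μM to 100 pM. Live HEK-293T cells expressed NanoLuc fused N-terminal to human CRBN together with DDB1. IC50 was fitted with a four-parameter logistic model.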

IKZF3 (Aiolos) = molecular target: T4, IKZF3 (Aiolos) (Homo sapiens, UniProt Q9UKT9); test: IKZF3 reporter degradation assay (HEK 293T IKZF3-mNeonGreen reporter cell line); type: cell-based; conditions: HEK 293T IKZF3-mNeonGreen reporter, 24 hours incubation; for inhibition at 1 µM: HEK-293T, 24 h
T4 construct: Leu-Asp junction (codons ctcgac before the linker); mScarlet (behind P2A) (C, cleaved yes); expressed in transfected cells
T4 sequence (Q96SW2 whole entry partner): as the sequence (Q96SW2 whole entry, further chain) above
T4 sequence (Q16531 whole entry partner): as the sequence (Q16531 whole entry partner) above
T4 sequence (Q9UKT9 whole entry): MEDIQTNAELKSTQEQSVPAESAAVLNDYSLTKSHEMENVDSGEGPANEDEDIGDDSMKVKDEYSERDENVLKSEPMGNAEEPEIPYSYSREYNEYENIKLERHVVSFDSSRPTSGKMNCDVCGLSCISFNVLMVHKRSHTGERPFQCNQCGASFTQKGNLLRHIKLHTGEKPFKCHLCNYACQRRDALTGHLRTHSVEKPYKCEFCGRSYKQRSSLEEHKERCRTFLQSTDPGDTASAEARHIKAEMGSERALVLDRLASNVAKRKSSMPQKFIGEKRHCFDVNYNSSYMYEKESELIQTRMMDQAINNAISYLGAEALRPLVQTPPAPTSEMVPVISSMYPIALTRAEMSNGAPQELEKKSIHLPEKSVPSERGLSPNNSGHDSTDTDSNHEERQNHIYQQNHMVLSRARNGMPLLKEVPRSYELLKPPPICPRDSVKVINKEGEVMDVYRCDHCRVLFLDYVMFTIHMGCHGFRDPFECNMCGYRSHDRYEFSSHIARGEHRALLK
Description: Polycistronic plasmids were constructed for the mammalian expression of fluorescent reporter fusions of human transcription factors IKZF1 (Ikaros), IKZF2 (Helios), and IKZF3 (Aiolos). The respective protein sequences had their C-terminal end joined to a GGGGS linker repeated three times followed by mNeonGreen, P2A sequence, and mScarlet. The DNA sequences of the open reading frames are as follows:
IKZF1, IKZF2, and IKZF3 constructs were cloned into the UCOE Hygromycin expression vectors (Millipore Sigma). Reporter constructs were transfected using cationic lipid reagents into adherent HEK 293T cells and stable integrants were selected by treatment with 200 μg/mL hygromycin B. Clonal populations were obtained from the population of stable integrants either by limiting dilution or fluorescence activated cell sorting.
The clonal stable cell lines were maintained under constant 200 μg/mL hygromycin B selection while being passaged for use in the degradation assays. […] The fluorescence intensity of the IKZF1/2/3-mNeonGreen (FITC channel) and mScarlet (PE channel) reporters were routinely analyzed by flow cytometry to confirm consistent expression levels between experiments.
The IKZF1/IKZF2/IKZF3 degradation assays were carried out by harvesting the HEK 293T reporter cell lines and resuspending the cells in media formulated for reduced background fluorescence (FluoroBrite; Thermo Fisher). The respective cell lines were seeded at a density of 4000 cells/well into black-walled 384-well optical grade assay tissue culture plates. The cells were incubated overnight at 37° C. to allow for attachment to the assay plate. Dilutions of the compounds were prepared in DMSO from 10 mM compound stocks. The assay plates were treated with appropriate concentrations of the compounds by dispensing the DMSO dilutions in quadruplicate wells with an upper limit of 0.5% final DMSO.
After 24 hours incubation with the compounds, the assay plates were imaged on an ImageXpress Pico microscopy system (cells maintained at 37° C. during imaging) to obtain the fluorescent readouts. The assay plates were imaged in the FITC and Tetramethylrhodamine (TRITC) channels to obtain the mNeonGreen fluorescence intensity (reporter degradation data) and mScarlet fluorescence intensity (for cell segmentation). 293T-IKZF1 and 293T-IKZF3 reporter cell lines were imaged with exposures of 500 milliseconds (ms) for both FITC and TRITC channels, while the 293T-IKZF2 reporter cell line was imaged with exposures of 1000 ms for FITC and 1250 ms for TRITC. The resulting data was analyzed with Cell Reporter Xpress software using the 2-channel cell scoring analysis with a “percent positive” readout. The TRITC channel was selected for the “nuclei” segmentation with a threshold of 20 while the FITC channel was selected for the “Marker 1” segmentation and a threshold of 100 for the IKZF1 and IKZF3 reporter lines. […] The minimum segmentation width was set to 6 micrometers and the maximum segmentation width was set to 15 micrometers for all cell lines. The DC50 calculations were determined by regression to best fit four-parameter logistic curves using GraphPad Prism.

T1 sequence (Q9UKS7 whole entry): as the sequence (Q9UKS7 whole entry) above
T1 sequence (Q96SW2 whole entry): as the sequence (Q96SW2 whole entry, further chain) above
T1 sequence (Q16531 whole entry partner): as the sequence (Q16531 whole entry partner) above

IKZF2 % Degradation @ 1 μM (IKZF2 (Helios) [1]) [%]	DC50 (IKZF2 (Helios) [2]) [µM]	EC50 [3] [µM]	DC50 (IKZF3 (Aiolos)) [µM]	inhibition at 1 µM (IKZF2 (Helios) [1]) [%]	inhibition at 1 µM (IKZF3 (Aiolos)) [%]	IKZF3 % Degradation @ 1 μM (IKZF3 (Aiolos)) [%]	SMILES
87.1	0.001	0.006	> 30	–	–	–	O=C1CCC(N2Cc3cc(O[C@H]4CCCC[C@@H]4N4CC(c5ccc6ccccc6n5)C4)ccc3C2=O)C(=O)N1 (single isomer, unassigned) [Compound 90-B]
–	0.029	0.005	> 30	47.3	–	–	O=C1CCC(N2Cc3cc(O[C@@H]4CCCC[C@@H]4N4CC(c5ccc6ccccc6n5)C4)ccc3C2=O)C(=O)N1 (single isomer, unassigned) [Compound 91-B]
–	0.007	0.012	> 30	81.7	–	–	O=C1CCC(N2Cc3cc(O[C@H]4CCCC[C@@H]4N4CC(c5ncncc5Cl)C4)ccc3C2=O)C(=O)N1 (single isomer, unassigned) [Compound 92-B]
78	0.021	0.064	> 30	–	–	–	O=C1CCC(N2Cc3cc(O[C@H]4CCCC[C@@H]4N4CC(c5ncncc5Cl)C4)ccc3C2=O)C(=O)N1 (single isomer, unassigned) [Compound 93-B]
–	0.023	0.03	> 30	77.8	–	–	O=C1CCC(N2Cc3cc(O[C@H]4CCCC[C@@H]4N4CC(c5ccncc5Cl)C4)ccc3C2=O)C(=O)N1 (single isomer, unassigned) [Compound 95-B]
–	0.006	0.004	> 30	81.3	–	–	O=C1CCC(N2Cc3cc(O[C@H]4CCCC[C@@H]4N4CC(c5ccc(Cl)cn5)C4)ccc3C2=O)C(=O)N1 (single isomer, unassigned) [Compound 99-B]
80.5	0.005	0.02	> 30	–	–	–	O=C1CCC(N2Cc3cc(O[C@H]4CCCC[C@@H]4N4CC(c5ccc(Cl)cn5)C4)ccc3C2=O)C(=O)N1 (single isomer, unassigned) [Compound 100-B]
–	0.01	0.015	> 30	71.1	–	–	O=C1CCC(N2Cc3cc(O[C@H]4CCCC[C@@H]4N4CC(c5ccncc5F)C4)ccc3C2=O)C(=O)N1 (single isomer, unassigned) [Compound 102-B]
69.9	0.018	0.059	> 30	–	–	–	O=C1CCC(N2Cc3cc(O[C@H]4CCCC[C@@H]4N4CC(c5ccncc5F)C4)ccc3C2=O)C(=O)N1 (single isomer, unassigned) [Compound 103-B]
–	0.006	0.006	> 30	74.6	–	–	O=C1CCC(N2Cc3cc(O[C@H]4CCCC[C@@H]4N4CC(c5ncc(Br)cn5)C4)ccc3C2=O)C(=O)N1 (single isomer, unassigned) [Compound 108-B]
–	0.004	0.007	> 30	76	–	–	O=C1CCC(N2Cc3cc(O[C@H]4CCCC[C@@H]4N4CC(c5ncc(Cl)cn5)C4)ccc3C2=O)C(=O)N1 (single isomer, unassigned) [Compound 111-B]
–	0.012	0.02	> 30	67.1	–	–	Cc1cnccc1C1CN([C@H]2CCCC[C@@H]2Oc2ccc3c(c2)CN(C2CCC(=O)NC2=O)C3=O)C1 (single isomer, unassigned) [Compound 112-B]
–	0.004	0.006	> 30	73.7	–	–	O=C1CCC(N2Cc3cc(O[C@H]4CCCC[C@@H]4N4CC(c5cncc(Cl)c5)C4)ccc3C2=O)C(=O)N1 (single isomer, unassigned) [Compound 116-B]
68.4	0.025	0.021	> 30	–	–	–	O=C1CCC(N2Cc3cc(O[C@H]4CCCC[C@@H]4N4CC(c5cncc(Cl)c5)C4)ccc3C2=O)C(=O)N1 (single isomer, unassigned) [Compound 117-B]
–	0.004	0.005	> 30	69.9	–	–	O=C1CCC(N2Cc3cc(O[C@H]4CCCC[C@@H]4N4CC(c5ncc(C(F)(F)F)cn5)C4)ccc3C2=O)C(=O)N1 (single isomer, unassigned) [Compound 120-B]
69.6	0.0001	0.001	> 30	–	–	–	O=C1CCC(N2Cc3cc(O[C@H]4CCCC[C@@H]4N4CC(c5ncc(C(F)(F)F)cn5)C4)ccc3C2=O)C(=O)N1 (single isomer, unassigned) [Compound 123-B]
–	0.083	0.065	> 30	50.9	–	–	O=C1CCC(N2Cc3cc(O[C@@H]4CCCC[C@H]4N4CC(c5ccc(C(F)(F)F)nc5)C4)ccc3C2=O)C(=O)N1 (single isomer, unassigned) [Compound 125-B]
–	0.006	0.007	0.0866	94.8	39.5	–	O=C1CCC(N2Cc3cc(O[C@H]4CCCC[C@@H]4N4CC(c5ccc(C(F)(F)F)nc5)C4)ccc3C2=O)C(=O)N1 (single isomer, unassigned) [Compound 126-B]
95.4	0.006	0.026	0.0633	–	–	39	O=C1CCC(N2Cc3cc(O[C@H]4CCCC[C@@H]4N4CC(c5ccc(C(F)(F)F)nc5)C4)ccc3C2=O)C(=O)N1 (single isomer, unassigned) [Compound 127-B]
–	0.018	0.011	> 30	24.2	–	–	O=C1CCC(N2Cc3cc(O[C@@H]4CCCC[C@H]4N4CC(c5ccc(C(F)(F)F)cn5)C4)ccc3C2=O)C(=O)N1 (single isomer, unassigned) [Compound 128-B]
42.4	0.02	0.038	> 30	–	–	–	O=C1CCC(N2Cc3cc(O[C@@H]4CCCC[C@H]4N4CC(c5ccc(C(F)(F)F)cn5)C4)ccc3C2=O)C(=O)N1 (single isomer, unassigned) [Compound 129-B]
–	0.005	0.01	0.0441	94.8	37.4	–	O=C1CCC(N2Cc3cc(O[C@H]4CCCC[C@@H]4N4CC(c5ccc(C(F)(F)F)cn5)C4)ccc3C2=O)C(=O)N1 (single isomer, unassigned) [Compound 130-B]
94.1	0.005	0.021	0.0414	–	–	34.3	O=C1CCC(N2Cc3cc(O[C@H]4CCCC[C@@H]4N4CC(c5ccc(C(F)(F)F)cn5)C4)ccc3C2=O)C(=O)N1 (single isomer, unassigned) [Compound 131-B]
–	0.005	0.005	> 30	70.4	–	–	O=C1CCC(N2Cc3cc(O[C@H]4CCCC[C@@H]4N4CC(c5ncc(C6CC6)cn5)C4)ccc3C2=O)C(=O)N1 (single isomer, unassigned) [Compound 134-B]
